What was measured:
HeLa = assay: Cytotoxicity against human HeLa cells after 24 hrs by WST8 assay; type: functional, cell-based
A549 [1] = assay: Antitumor activity against human A549 cells xenografted athymic BALB/c mouse assessed as reduction in tumor volume at 100 mg/kg/day, po for 28 days; type: functional; set-up: scale not given: the % may be the effect or the level left
A549 [2] = assay: Cytotoxicity against human A549 cells after 24 hrs by WST8 assay; type: functional, cell-based; settings: A549, 24 h

SMILES	IC50 (HeLa)	Activity (A549 [1])	IC50 (A549 [2])
COc1cc(C)c2cc(O[C@@H]3O[C@H](CO)[C@@H](O)[C@H](O)[C@H]3O)c(C)cc2c1C(C)C	231 µM	50%	194 µM
COc1cc(C)c2cc(OCCO[C@H]3O[C@H](CO)[C@@H](O)[C@H](O)[C@H]3O)c(C)cc2c1C(C)C	161 µM	25%	129 µM
COc1cc(C)c2cc(O)c(C)cc2c1C(C)C [CADALENE]	28.3 µM	–	34.9 µM
